These results are taken from ChEMBL document CHEMBL1275254 (2010).

≈ marks a conversion by molar mass, not a printed value.

The assay concerns Burkholderia pseudomallei. Nature of the assay: Antimicrobial activity against Burkholderia pseudomallei 1026b after 24 hrs by broth microdilution method. Format: functional. In general terms: Dilution methods test growth across graded concentrations, often in twofold steps.
As usually defined, the MIC is the lowest concentration that inhibits growth of the organism. As to `O=C(N[C@H](CO)[C@H](O)c1ccc([N+](=O)[O-])cc1)C(Cl)Cl` [CHLORAMPHENICOL], the minimum inhibitory concentration (MIC) is 8 µg/mL (≈ 24.8 µM).
As for `NC[C@H]1O[C@H](O[C@H]2[C@H](O)[C@@H](O[C@H]3O[C@H](CO)[C@@H](O)[C@H](N)[C@H]3O)[C@H](N)C[C@@H]2N)[C@H](O)[C@@H](O)[C@@H]1O` [KANAMYCIN], the MIC worked out at 64 µg/mL (≈ 132 µM).
Compound `CC[C@H]1OC(=O)[C@H](C)[C@@H](O[C@H]2C[C@@](C)(OC)[C@@H](O)[C@H](C)O2)[C@H](C)[C@@H](O[C@@H]2O[C@H](C)C[C@H](N(C)C)[C@H]2O)[C@](C)(OC)C[C@@H](C)C(=O)[C@H](C)[C@@H](O)[C@]1(C)O` [CLARITHROMYCIN] showed a minimum inhibitory concentration (MIC) of 128 µg/mL (≈ 171 µM).
Turning to `CC1COc2c(N3CCN(C)CC3)c(F)cc3c(=O)c(C(=O)O)cn1c23` (stereo not drawn) [OFLOXACIN], the MIC came out at 2 µg/mL (≈ 5.53 µM).
Compound `CN[C@@H]1[C@H](O)[C@H](NC)[C@H]2O[C@@]3(O)C(=O)C[C@@H](C)O[C@H]3O[C@@H]2[C@H]1O` [SPECTINOMYCIN] yielded a minimum inhibitory concentration (MIC) of 2050 µg/mL (≈ 6160 µM).
In turn, `CCC[C@@H]1C[C@@H](C(=O)N[C@@H]([C@H]2O[C@H](SC)[C@H](O)[C@@H](O)[C@H]2O)[C@H](C)Cl)N(C)C1` [CLINDAMYCIN] displayed a minimum inhibitory concentration (MIC) of over 4100 µg/mL.
Regarding GENTAMICIN, inhibition of growth (MIC) required 512 µg/mL.
For the compound `CN[C@@H]1[C@H](O[C@H]2[C@H](O[C@H]3[C@H](O)[C@@H](O)[C@H](N=C(N)N)[C@@H](O)[C@@H]3N=C(N)N)O[C@@H](C)[C@]2(O)C=O)O[C@@H](CO)[C@H](O)[C@H]1O` [STREPTOMYCIN], the minimum inhibitory concentration (MIC) was over 2050 µg/mL.
